Counter-ions that a name gives are not always drawn. Like-named read-outs stand apart in the source and are kept apart here.
How the values were obtained:
[1] = Peripheral selectivity: ratio of ED50 in the tail-withdrawal assay over ED50 in the anti-diarrheal (castor oil) assay; assay type: in vivo, female Wistar rats
Excerpt: The cut off time is 15 seconds. […] After each determination the tail is carefully dried.
Each animal is kept in an individual cage.

[2] = test system: central nervous system; settings: reported prior use, antidiarrheal formulations, hydrochloride, cited from earlier work

Row | SMILES | Peripheral Selectivity (ED50tw/ED50 Castor Oil) ([1]; po) | also measured
1 | CCN(C)C(=O)C(CCN1CCC(O)(c2ccc(Cl)cc2)CC1)(c1ccccc1)c1ccccc1 [Compound 2, 4-(p-Chlorophenyl)-4-hydroxy-N-ethyl-N-methyl-ααdiphenyl-1-piperidinebutyramide] | ≥ 1,231 | 
2 | CN(C)C(=O)C(CCN1CCC(O)(c2ccc(Br)cc2)CC1)(c1ccccc1)c1ccccc1 [Compound 3, 4-(p-Bromophenyl)-4-hydroxy-N,N-dimethyl-αα-diphenyl-1-piperidinebutyramide] | 800 | 
3 | O=C(N1CCCC1)C(CCN1CCC(O)(c2ccc(Cl)c(Cl)c2)CC1)(c1ccccc1)c1ccccc1 [Compound 4] |  | Peripheral Selectivity (ED50tw/ED50 Castor Oil) ([1]; oral, rats, tail withdrawal ED50 over castor oil test ED50 (both mg/kg)): > 640
4 | O=C(N1CCCC1)C(CCN1CCC(O)(c2ccc(Cl)cc2)CC1)(c1ccccc1)c1ccccc1 [Compound 5, 1-{4-[(4-Chlorophenyl)4-hydroxy-1-piperidino]-2,2-diphenylbutyryl}pyrrolidine] | 593 | 
5 | CN(C)C(=O)C(CCN1CCC(O)(c2ccc(Cl)cc2)CC1)(c1ccccc1)c1ccccc1 [Compound 6, 4-(p-Chlorophenyl)-4-hydroxy-N,N-dimethyl-αα-diphenyl-1-piperidinebutyramide] | 533 | 
6 | CN(C)C(=O)C(CCN1CCC(O)(c2ccc(F)cc2)CC1)(c1ccccc1)c1ccccc1 [Compound 7, 4-(p-Fluorophenyl)-4-hydroxy-N,N-dimethyl-αα-diphenyl-1-piperidinebutyramide] | 500 | 
7 | CN(C)C(=O)C(CCN1CCC(O)(c2ccc(Cl)c(C(F)(F)F)c2)CC1)(c1ccccc1)c1ccccc1 [Compound 8, 4-(4-Chloro3-trifluoromethyl-phenyl)-4-hydroxy-N,N-dimethyl-αα-diphenyl-1-piperidinebutyramide] | 467 | 
8 | O=C(N1CCCC1)C(CCN1CCC(O)(c2ccccc2)CC1)(c1ccccc1)c1ccccc1 [Compound 9, 1-[4-(4-Hydroxy-4phenyl-1piperidino)-2,2-diphenylbutyryl]pyrrolidine] | 437 | 
9 | O=C(N1CCOCC1)C(CCN1CCC(O)(c2cccc(C(F)(F)F)c2)CC1)(c1ccccc1)c1ccccc1 [Compound 10] | > 251 | 
10 | CN(C)C(=O)C(CCN1CCC(O)(c2ccc(Cl)cc2)CC1)(c1ccccc1)c1ccccc1 [loperamide, 4-(p-chlorophenyl)-4-hydroxy-N-N-dimethyl-αα-diphenyl-1-piperidinebutyramide hydrochloride] |  | CNS effects [2]: devoid of CNS effects; CNS effects ([2]; listed as Loperamide HCl): completely free of the undesirable CNS effects

From US5811078A, “Spray formulations of antihyperalgesic opiates and method of treating topical hyperalgesic conditions therewith” (Adolor Corporation, priority 1997, dated 1998)
